Data as given in US20190022225A1, “PROTOCOL FOR INCREASING LIFE EXPECTANCY IN A TEST SUBJECT” (Mayo Foundation for Medical Education and Research, priority 2015, published 2019).
“Also recorded” adds a separate entry of the source.

How the values were obtained:
Assay type in all cases: in vivo, mouse
INKattac mice [1] = experiment: Micro CT of femoral cortical bone in INKattac mice treated from 12-28 months
Protocol: (§1) This example describes a method for assessing the effect of senotlytic agents or killing of senescent cells on bone structure. Two groups of INKattac mice are used for this method: mice treated from 12-28 months of age with vehicle (“old” controls) and mice treated from 12-28 months of age with AP20187. All mice used in this example were male. After sacrifice the cadavers were fixed in 10% neutral buffered formalin, and stored at 4° C.
Mice were cleaned of excess tissue, and placed in a Bruker 1176 “Skyscanner” for micro computerized tomographic (mCT) scanning. A variety of settings were explored to visualize whole skeletons, the following settings were used in this example: 65 Kv, 385 μA, 17.58 μm, 0.5 mm Al filter, rotation step 0.5, frame averaging 6, smoothing 2, smoothing kernel 2, ring artifact correction 4, and beam hardening correction 30%. Typical acquisition consisted of a whole body scan, followed by additional scans if necessary for further data exploration.
Reconstruction of the raw data was carried out. Subvoluming of anatomical features of interest was then further performed on the whole skeleton, using DataViewer, or CtAn software (Bruker). […]
The average thickness of each 2 mm subvolume was measured in treated versus non-treated animals. […]

INKattac mice [2] = experiment: Micro CT estimate of intervertebral disc space (IVS) in aged mice
Protocol: as §1
Intervertebral discs are type of cartilage filling the space between vertebras of the spine. They are known to decrease in function and volume with age. We estimated the intervertebral volumes between specific vertebra in spines of aged mice, with and without senolytic treatment, to determine if intervertebral disc space was maintained in aged animals through senolysis.
While IVDs cannot be directly visualized with the micro-CT method of example 43, an image segmentation protocol was developed to infer disc volume by determining the volume between lumbar vertebra L6 and L5, L5 and L4, and L4 and L3 to estimate the intervertebral disc space (IVS) (FIG. 94).

[3] = test system: INK-ATTAC transgenic mice; experiment: Cardiac stress test (lethal isoproterenol) in INK-ATTAC mice treated with AP20187
Protocol: To study the impact of senescent cell clearance on health and lifespan, cohorts of INK-ATTAC transgenic mice on FVB×129Sv/E×C57BL/6 mixed or C57BL/6 pure genetic backgrounds were established. At 12 months age, one half of each cohort was injected three times/week with AP20187 to induce apoptosis of p16-positive senescent cells (0.2 mg/kg and 2 mg/kg AP20187 for the mixed and the pure C57BL/6 cohorts, respectively), while the other half of each cohort received vehicle. At 18 months, subsets of male and female mice from each cohort were subjected to a cardiac stress test, in which mice were injected with a lethal dose of isoproterenol (680 mg/kg) and the time to cardiac arrest was recorded.
Cardio-protective signaling pathways are known to provide tolerance to metabolic stresses such as ischemia and hypoxia decline (Granfeldt et al., 2009, Cardiovasc. Res. 83:234-246). […] ATP-dependent K channels (KATP) play a central role in cardio-protective signaling (Gross and Auchampach, 1992, Cardiovasc. Res. 26:1011-1016).). These KATP channels are composed of the pore-forming subunit Kir6.2/Kir6.1, the regulatory subunit Sur2a, and additional accessory proteins. […]

[4] = test system: 3MR or INK-ATTAC mice exposed to cigarette smoke; experiment: Cigarette smoke exposure model (COPD), oxygen saturation; details: after 2 months of cigarette smoke exposure
Protocol: Six week-old 3MR (n=35) or INK-ATTAC (n=35) mice were chronically exposed to cigarette smoke generated from a Teague TE-10 system, an automatically-controlled cigarette smoking machine that produces a combination of side-stream and mainstream cigarette smoke in a chamber, which is transported to a collecting and mixing chamber where varying amounts of air is mixed with the smoke mixture. […] Mice received a total of 6 hours of cigarette smoke exposure per day, 5 days a week for 6 months. Each lighted cigarette (3R4F research cigarettes containing 10.9 mg of total particulate matter (TPM), 9.4 mg of tar, and 0.726 mg of nicotine, and 11.9 mg carbon monoxide per cigarette [University of Kentucky, Lexington, Ky.]) was puffed for 2 seconds and once every minute for a total of 8 puffs, with the flow rate of 1.05 L/min, to provide a standard puff of 35 cm^3. The smoke machine was adjusted to produce a mixture of side stream smoke (89%) and mainstream smoke (11%) by smoldering 2 cigarettes at one time. The smoke chamber atmosphere was monitored for total suspended particulates (80-120 mg/m^3) and carbon monoxide (350 ppm). Beginning at day 7, (10) INK-ATTAC and (10) 3MR mice were treated with AP20187 (3×per week) or gancyclovir (5 consecutive days of treatment followed by 16 days off drug, repeated until the end of the experiment), respectively. An equal number of mice received the corresponding vehicle. The remaining 30 mice (15 INK-ATTAC and 15 3MR) were evenly split with 5 of each genetically modified strain placed into three different treatment groups. One group (n=10) received Nutlin-3A (25 mg/kg dissolved in 10% DMSO/3% Tween-20 in PBS, treated 14 days consecutively followed by 14 days off drug, repeated until the end of the experiment). One group (n=10) received ABT-263 (Navitoclax) (100 mg/kg dissolved in 15% DMSO/5% Tween-20, treated 7 days consecutively followed by 14 days off drug, repeated until the end of the experiment), and the last group (n=10) received only the vehicle used for ABT-263 (15% DMSO/5% Tween-20), following the same treatment regimen as ABT-263.
After two months of cigarette smoke exposure, lung function was assessed by monitoring oxygen saturation using the MouseSTAT PhysioSuite pulse oximeter (Kent Scientific). Animals were anesthetized with isoflurane (1.5%) and the toe clip was applied. Mice were monitored for 30 seconds and the average peripheral capillary oxygen saturation (SpO2) measurement over this duration was calculated.

aging mice = experiment: Late life muscle strength and condition (grip strength, treadmill, muscle weight, fiber area)
Protocol: Grip strength was measured in untreated 12 month old mice, and in mice treated with either vehicle or AP20187 at 18 and 28 months of age.
Muscle strength was also assessed by determining exercise duration and distance on a treadmill.
As an additional measure of muscle condition gastrocnemius and tibialis anterior muscles, shown in FIG. 99, where dissected from senolysis treated and untreated 28 month old mice and weighed. As shown in FIGS. 100 and 101 the gastrocnemius and tibialis anterior muscles are heavier in treated mice than in untreated mice, muscle weights from untreated 18 month old mice are included to show the age related decline. Muscle fiber area of the gastrocnemius and tibialis anterior muscles was also used to assess muscle condition.

CC[C@H](C(=O)N1CCCC[C@H]1C(=O)O[C@H](CCc1ccc(OC)c(OC)c1)c1cccc(OCC(=O)NCC(CNC(=O)COc2cccc([C@@H](CCc3ccc(OC)c(OC)c3)OC(=O)[C@@H]3CCCCN3C(=O)[C@@H](CC)c3cc(OC)c(OC)c(OC)c3)c2)CN(C)C)c1)c1cc(OC)c(OC)c(OC)c1 [AP20187]
cortical thickness of femoral bone (INKattac mice [1]; aged mice, versus controls): increased
retention of cortical bone volume (BV/TV) with age (INKattac mice [1]; male mice treated from 12-28 months, 2 mm subvolume of femur mid-diaphysis): 6.1%
improvement of intervertebral disc space (IVS) (INKattac mice [2]; L6-L5, L5-L4, L4-L3, versus vehicle): 25-33%
IVS versus vehicle treated controls, significance (INKattac mice [2]; three sites in the spine): statistically significantly greater
time to cardiac arrest after lethal isoproterenol (cardio-protection) ([3]; 0.2 or 2 mg/kg three times/week from 12 to 18 months): sustained youthful cardio-protection against isoproterenol
Sur2a expression in heart ([3]; 18-month-old female mice): sustained Sur2a expression
SpO2 levels versus untreated controls [4]: statistically significant increases
gastrocnemius and tibialis anterior muscle weight (aging mice; 28 month old mice): decreased muscle loss with age
exercise distance on treadmill (aging mice; 28 months, versus vehicle): increased exercise distance; also recorded: greater distances
exercise duration on treadmill (aging mice; 28 months, versus vehicle): increased duration of exercise; also recorded: exercised for longer
grip strength (aging mice; 28 months, versus vehicle): increased grip strength; also recorded: decreased loss of muscle strength
